“Also recorded” adds a separate entry of the source.
Tests used:
human CD3 T cells = assay: Pen 9 western blot of antibiotic-treated human T cells; format: cell-based; conditions: human T cells activated by mitogen in presence of the antibiotic
NOD mice = assay: Autoimmune diabetes in NOD mice; format: in vivo, mouse
Protocol: NOD mice spontaneously develop diabetes mellitus similar to type I diabetes in humans. […] The mice were followed for the development of diabetes, marked by blood sugar above 300 mg/dl on 2 measurements.

CD4+ human T cells = assay: Real-time PCR verification of six genes; format: cell-based; conditions: same RNA as gene array; cefuroxime 50 μg/ml
Protocol: To verify the results of the gene array, we synthesized real-time PCR primers (designed with the LightCycler probe design software (Roche)). Real-time PCR of 6 selected genes was performed using a LightCycler (Roche, Basel, Switzerland). RNA was reverse transcribed to cDNA from 1 μg of total RNA, which was then subjected to quantitative RT-PCR performed essentially according to the manufacturer's instructions. Specific primer pairs were used to amplify specific genes in the presence of 3 mM MgCl2. PCR was performed in triplicate in a total volume of 20 μl of LightCycler HotStart DNA SYBR Green I mix (Roche) containing primer and 5 μl of cDNA. […] Denaturation was performed for 15 s at 95° C., annealing was performed in 60° C., and the extension was performed at 72° C. for 20 s, with fluorescence detection at 72° C. after each cycle. After the final cycle, melting point analyses of all samples were performed within the range of 62-95° C. with continuous fluorescence detection. […]
The Human Autoimmune and Inflammatory Response Gene Array (SuperArray Bioscience corporation, Frederick, Md., USA) was used for analysis of gene expression by the T cells. […] To verify the results detected by the gene array study, a panel of six genes was designed and tested by real-time PCR: CCR4, ACVR2, JAK1, STAT4, TLR2 and NFKBIE. […]

[1] = test system: experimental autoimmune encephalomyelitis (EAE) in rats; assay: Actively induced EAE; format: in vivo, rat; conditions: oral in drinking water from day 7 postinduction, daily dose 50 mg/kg, versus two control groups
[2] = test system: Adjuvant Arthritis (AA) in rats; assay: Adjuvant arthritis (AA); format: in vivo, rat; conditions: IP 5 mg (25 mg/kg) once every 2 or 3 days from day 12, versus non-injected control
Protocol: Heat-killed Mycobacterium tuberculosis (Mt) strain H37Ra (Difco) was finely ground using a pestle and mortar, and was suspended to a final concentration of 10 mg/ml in IFA. Test rats were injected at the base of the tail with a total of 100 μl of the Mt suspension. The day of AA induction was designated as day 0. Disease severity was assessed by direct observation of all four limbs in each animal. A relative score between 0 and 4 was assigned to each limb based on the degree of joint inflammation, redness, and deformity; thus, the maximum possible score for an individual animal was 16. The results are presented as the mean±SE of total score.
To test the effects of antibiotics in vivo, active experimental autoimmune encephalomyelitis (EAE) was induced in rats as described above, and the injected rats (4 per group) were treated with oral cefuroxime axetil in the drinking water from day 7 postinduction (“Oral T Cefurox.”). One 500 mg tablet was dissolved in 500 ml of drinking water. The daily dose was 50 mg/kg, in the range of therapeutic pediatric human doses. As a control, the intravenous cefuroxime sodium preparation, which is not absorbed into the circulation, was administered orally (“Oral inj. Cefurox.”). A second control group was given water without antibiotics (“Control”). […]

Row | Structure (SMILES) | reactivity of Pen 9 antibody with lysates of treated T cells (human CD3 T cells) | effect on type I diabetes (NOD mice; NOD mice) | incidence of diabetes (NOD mice; NOD mice at 5.7 months, SC weekly, ampicillin 1300 μg, ceftriaxone 675 μg per mouse) [%] | expression of CCR4, ACVR2, JAK1, STAT4, TLR2 and NFKBIE by real-time PCR (CD4+ human T cells) | severity of actively induced EAE [1] | arthritis scores [2]
1 | CC1(C)S[C@@H]2[C@H](NC(=O)[C@H](N)c3ccccc3)C(=O)N2[C@H]1C(=O)O [ampicillin] | did not bind | Inhibition of type I diabetes in NOD mice | 30 |  |  | 
2 | CO/N=C(\C(=O)N[C@@H]1C(=O)N2C(C(=O)O)=C(COC(N)=O)CS[C@H]12)c1ccco1 [cefuroxime] |  |  |  | suppressed | increases the severity of actively induced EAE | significantly more severe arthritis scores; also recorded: Exacerbation of adjuvant-induced arthritis

— US9345691B2, “Beta-lactam compounds for enhancing T cell-mediated immune responses” (STEM CELL MEDICINE LTD., priority 2011, dated 2016)
